According to patent US20060069132A1, “Azolecarboxamide herbicides” (priority 2004, published 2006):

What was measured:
soybean = experiment: Test C pre-/postemergence herbicide test; format: in vivo, Glycine max
From the text: (§1) Seeds of plant species selected from bermudagrass (Cynodon dactylon (L.) Pers.), Surinam grass (Urochloa decumbens (Staph) R. D. Webster, previously named Brachiaria decumbens Stapf), cocklebur (Xanthium strumarium L.), corn (Zea mays L.), large crabgrass (Digitaria sanguinalis (L.) Scop.), woolly cupgrass (Eriochloa villosa (Thunb.) Kunth), giant foxtail (Setaria faberi Herrm.), goosegrass (Eleusine indica (L.) Gaertn.), johnsongrass (Sorghum halepense (L.) Pers.), kochia (Kochia scoparia (L.) Schrad.), lambsquarters (Chenopodium album L.), morningglory (Ipomoea coccinea L.), eastern black nightshade (Solanum ptycanthum Dunal), yellow nutsedge (Cyperus esculentus L.), pigweed (Amaranthus retroflexus L.), common ragweed (Ambrosia elatior L.), soybean (Glycine max (L.) Merr.), common (oilseed) sunflower (Helianthus annuus L.) and velvetleaf (Abutilon theophrasti Medik.) were planted and treated preemergence with test chemicals formulated in a non-phytotoxic solvent mixture which included a surfactant.
(§2) At the same time, plants selected from these crop and weed species and also winter barley (Hordeum vulgare L.), blackgrass (Alopecurus myosuroides Huds.), canarygrass (Phalaris minor Retz.), chickweed (Stellaria media (L.) Vill.), downy bromegrass (Bromus tectorum L.), green foxtail (Setaria viridis (L.) Beauv.), Italian ryegrass (Lolium multiflorum Lam.), wheat (Triticum aestivum L.), wild oat (Avenafatua L.) and windgrass (Apera spica-venti (L.) Beauv.) were treated with postemergence applications of some of the test chemicals formulated in the same manner. Plants ranged in height from 2 to 18 cm (1- to 4-leaf stage) for postemergence treatments. Plant species in the flooded paddy test consisted of rice (Oryza sativa), smallflower umbrella sedge (Cyperus difformis L.), ducksalad (Heteranthera limosa (Sw.) Willd.) and barnyardgrass (Echinochloa crus-galli (L.) Beauv.) grown to the 2-leaf stage for testing. Treated plants and controls were maintained in a greenhouse for 12 to 14 days, after which time all species were compared to controls and visually evaluated. Plant response ratings, summarized in Table C, are based on a scale of 0 to 100 where 0 is no effect and 100 is complete control. A dash (-) response means no test result.

yellow nutsedge = experiment: Test C pre-/postemergence herbicide test; format: in vivo, Cyperus esculentus
From the text: as §1, §2

lambsquarters = experiment: Test C pre-/postemergence herbicide test; format: in vivo, Chenopodium album
From the text: as §1, §2

morningglory = experiment: Test C pre-/postemergence herbicide test; format: in vivo, Ipomoea coccinea; design: key to Plant response rating, Morningglory: 0 = no effect, 100 = complete control
From the text: as §1, §2

corn = experiment: Test C pre-/postemergence herbicide test; format: in vivo, Zea mays
From the text: as §1, §2

johnsongrass = experiment: Test C pre-/postemergence herbicide test; format: in vivo, Sorghum halepense
From the text: as §1, §2

common ragweed = experiment: Test C pre-/postemergence herbicide test; format: in vivo, Ambrosia elatior; design: key to Plant response rating, Ragweed: 0 = no effect, 100 = complete control
From the text: as §1, §2

Surinam grass = experiment: Test C pre-/postemergence herbicide test; format: in vivo, Urochloa decumbens
From the text: as §1, §2

giant foxtail = experiment: Test C pre-/postemergence herbicide test; format: in vivo, Setaria faberi
From the text: as §1, §2

barnyardgrass = experiment: Test C flooded paddy test; format: in vivo, Echinochloa crus-galli
Summary of the method: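 Ratings (0 = no effect, 100 = complete control) come from visual comparison with untreated plants after 12 to 14 days in the greenhouse. Treatment was postemergence at the 1- to 4-leaf stage (2–18 cm), or at the 2-leaf stage for the flooded paddy barnyardgrass.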

[1] = test system: smallflower umbrella sedge; experiment: Test C flooded paddy test; format: in vivo, Cyperus difformis
ducksalad = experiment: Test C flooded paddy test; format: in vivo, Heteranthera limosa
[2] = Postemergence, 250 g ai/ha, scale 0 to 100, 0 no effect, 100 complete control
[3] = Postemergence, 500 g ai/ha, scale 0 to 100, 0 no effect, 100 complete control
[4] = postemergence, 125 g ai/ha, scale 0 to 100
[5] = postemergence, 62 g ai/ha, scale 0 to 100
[6] = 62 g ai/ha, preemergence, scale 0 to 100
[7] = 250 g ai/ha, scale 0-100, preemergence
[8] = 500 g ai/ha, scale 0 to 100 (0 no effect, 100 complete control), visual, 12 to 14 days, preemergence
[9] = 125 g ai/ha, scale 0 to 100 (0 no effect, 100 complete control)
[10] = 250 g ai/ha, scale of 0 to 100, 0 is no effect, 100 is complete control
[11] = 500 g ai/ha, visual rating after 12 to 14 days, scale 0 to 100 (0 no effect, 100 complete control)

CCn1nc(C(C)(C)C)cc1C(=O)Nc1cc(OC(F)(F)F)ccc1F [Compound 338]
Plant response rating, Soybean (soybean; [2]): 35 | Plant response rating, Soybean (soybean; [3]): 60 | Plant response rating, Soybean (soybean; [4]): 30 | Plant response rating, Soybean (soybean; [5]): 10 | Plant response rating, Nutsedge, Yellow (yellow nutsedge; [2]): 0 | Plant response rating, Nutsedge, Yellow (yellow nutsedge; [3]): 0 | Plant response rating, Nutsedge, Yellow (yellow nutsedge; [4]): 0 | Plant response rating, Nutsedge, Yellow (yellow nutsedge; [5]): 0 | Plant response rating, Lambsquarters (lambsquarters; [2]): 75 | Plant response rating, Lambsquarters (lambsquarters; [3]): 75 | Plant response rating, Lambsquarters (lambsquarters; [4]): 5 | Plant response rating, Lambsquarters (lambsquarters; [5]): 0 | Plant response rating, Morningglory (morningglory; [2]): 40 | Plant response rating, Morningglory (morningglory; [3]): 50 | Plant response rating, Morningglory (morningglory; [4]): 0 | Plant response rating, Morningglory (morningglory; [5]): 0 | Plant response rating, Corn (corn; [2]): 10 | Plant response rating, Corn (corn; [3]): 10 | Plant response rating, Corn (corn; [4]): 0 | Plant response rating, Corn (corn; [5]): 0 | Plant response rating, Johnsongrass (johnsongrass; [2]): 0 | Plant response rating, Johnsongrass (johnsongrass; [3]): 0 | Plant response rating, Johnsongrass (johnsongrass; [4]): 0 | Plant response rating, Johnsongrass (johnsongrass; [5]): 0 | Plant response rating, Ragweed (common ragweed; [2]): 5 | Plant response rating, Ragweed (common ragweed; [3]): 10 | Plant response rating, Ragweed (common ragweed; [4]): 5 | Plant response rating, Ragweed (common ragweed; [5]): 0 | Plant response rating, Surinam Grass (Surinam grass; [2]): 0 | Plant response rating, Surinam Grass (Surinam grass; [3]): 30 | Plant response rating, Surinam Grass (Surinam grass; [4]): 0 | Plant response rating, Surinam Grass (Surinam grass; [5]): 0 | Plant response rating, Foxtail, Giant (giant foxtail; [2]): 10 | Plant response rating, Foxtail, Giant (giant foxtail; [3]): 10 | Plant response rating, Foxtail, Giant (giant foxtail; [4]): 5 | Plant response rating, Foxtail, Giant (giant foxtail; [5]): 5

CCc1nn(C(C)C)nc1C(=O)Nc1cccc(C(=O)N2CCCCC2)c1 [Compound 385]
Plant response rating, Soybean (soybean; [6]): 25 | Plant response rating (0 = no effect, 100 = complete control), Soybean (soybean; 125 g ai/ha, preemergence): 100 | Plant response rating, Soybean (soybean; [7]): 100 | Plant response rating, Soybean (soybean; [8]): 100 | Plant response rating, Nutsedge, Yellow (yellow nutsedge; [6]): 100 | Plant response rating (0 = no effect, 100 = complete control), Nutsedge, Yellow (yellow nutsedge; 125 g ai/ha, preemergence): 100 | Plant response rating, Nutsedge, Yellow (yellow nutsedge; [7]): 100 | Plant response rating, Nutsedge, Yellow (yellow nutsedge; [8]): 100 | Plant response rating, Lambsquarters (lambsquarters; [6]): 75 | Plant response rating (0 = no effect, 100 = complete control), Lambsquarters (lambsquarters; 125 g ai/ha, preemergence): 100 | Plant response rating, Lambsquarters (lambsquarters; [7]): 100 | Plant response rating, Lambsquarters (lambsquarters; [8]): 100 | Barnyardgrass plant response rating (barnyardgrass; 62 g ai/ha, scale 0 to 100 (0 no effect, 100 complete control)): 20 | Barnyardgrass plant response rating (barnyardgrass; [9]): 55 | Barnyardgrass plant response rating (barnyardgrass; [10]): 80 | Plant response rating, Barnyardgrass (barnyardgrass; [11]): 85 | Plant response rating, Morningglory (morningglory; [6]): 15 | Plant response rating, Morningglory (morningglory; [7]): 65 | Plant response rating, Morningglory (morningglory; [8]): 100 | Plant response rating, Corn (corn; [6]): 0 | Sedge, Umbrella plant response rating ([1]; 62 g ai/ha, scale 0 to 100): 75 | Sedge, Umbrella plant response rating [1, 9]: 75 | Sedge, Umbrella plant response rating [1, 10]: 80 | Plant response rating, Sedge, Umbrella [1, 11]: 85 | Plant response rating, Johnsongrass (johnsongrass; [6]): 80 | Plant response rating (0 = no effect, 100 = complete control), Johnsongrass (johnsongrass; 125 g ai/ha, preemergence): 95 | Plant response rating, Johnsongrass (johnsongrass; [7]): 100 | Plant response rating, Johnsongrass (johnsongrass; [8]): 100 | Plant response rating, Ragweed (common ragweed; [6]): 0 | Plant response rating (0 = no effect, 100 = complete control), Ragweed (common ragweed; 125 g ai/ha, preemergence): 20 | Plant response rating, Ragweed (common ragweed; [7]): 90 | Plant response rating, Ragweed (common ragweed; [8]): 95 | Ducksalad plant response rating (ducksalad; 62 g ai/ha, scale 0 to 100): 0 | Ducksalad plant response rating (ducksalad; [10]): 70 | Plant response rating, Ducksalad (ducksalad; [11]): 75 | Plant response rating, Foxtail, Giant (giant foxtail; [6]): 40 | Plant response rating (0 = no effect, 100 = complete control), Foxtail, Giant (giant foxtail; 125 g ai/ha, preemergence): 80 | Plant response rating, Foxtail, Giant (giant foxtail; [7]): 95 | Plant response rating, Foxtail, Giant (giant foxtail; [8]): 100
